Assay results from patent EP4389751A1, “HETEROCYCLIC COMPOUNDS AND USES THEREOF” (Kumquat Biosciences Inc., priority 2021, dated 2024).

Experiments:
K-Ras G12S = target: T1, K-Ras G12S (Homo sapiens, UniProt P01116, G12S); experiment: HTRF assay of the K-Ras / SOS1 interaction; format: biochemical; conditions: IC50 (against K-Ras G12D) to IC50 (against K-Ras G12S)
T1 construct: made in house; host or cells: E. coli (e.g., BL21 (DE3))
Summary of the method: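 GST-K-Ras G12S with anti-GST-Eu donor and His-hSOS1 with anti-6His-XL665 acceptor in ~5 mM HEPES pH 7.4, ~150 mM NaCl, 1 mM DTT, 0.05% BSA, 0.0025% Igepal. Read after ~10 min or longer; IC50 from 665/620 nm ratio, duplicates at 10 µM down to 0.01 µM.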

[1] = target: T2, KRAS protein (His-tagged GDP-loaded G12S 1-169) (Homo sapiens, UniProt P01116, G12S); experiment: Covalent modification of KRAS protein, intact-protein LC-MS; format: binding; conditions: for % G12S Modification at 24 hr.: 24hrs at room temperature, KRAS protein ~2 µM; for K-Ras12S engagement after 24-hour treatment: compound pairs differ only at R^6 (warhead)
T2 construct: His-tagged GDP-loaded G12S 1-169
Summary of the method: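 His-tagged GDP-loaded KRAS 1-169 (~2 µM) incubated with compound 24 h at room temperature, then quenched with formic acid. Intact-protein LC-ESI-MS on C4 column; deconvoluted peak intensities of unmodified and adducted protein give percent covalent modification.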

Row | Structure (SMILES) | Ratio of IC50 KRAS G12D vs. IC50 KRAS G12S (K-Ras G12S) | % G12S Modification at 24 hr. [1] | K-Ras12S engagement after 24-hour treatment [1]
1 | N#Cc1c(N)sc2c(F)ccc(-c3c(Cl)cc4c(N5CCC6C5CCCN6C(=O)n5cncn5)nc(OC[C@@]56CCCN5C[C@H](F)C6)nc4c3F)c12 (stereo partly drawn) [Compound A152, 4-(4-(4-(1H-1,2,4-triazole-1-carbonyl)octahydro-1H-pyrrolo[3,2-b]pyridin-1-yl)-6-chloro-8-fluoro-2-(((2R,7aS)-2-fluorotetrahydro-1H-pyrrolizin-7a(5H)-yl)methoxy)quinazolin-7-yl)-2-amino-7-fluorobenzo[b]thiophene-3-carbonitrile] | A (A: indicates that the ratio of IC50 against KrasG12D vs. IC50 against KrasG12S is 1-fold or greater) | +++ (+++ indicates greater than 20% labelling) | –
2 | N#Cc1c(N)sc2c(F)ccc(-c3c(Cl)cc4c(N5CCCC6(CN(C(=O)n7cncn7)C6)C5)nc(OC[C@@]56CCCN5C[C@H](F)C6)nc4c3F)c12 [Compound A129, 4-(4-(2-(1H-1,2,4-triazole-1-carbonyl)-2,6-diazaspiro[3.5]nonan-6-yl)-6-chloro-8-fluoro-2-(((2R,7aS)-2-fluorotetrahydro-1H-pyrrolizin-7a(5H)-yl)methoxy)quinazolin-7-yl)-2-amino-7-fluorobenzo[b]thiophene-3-carbonitrile] | A (A: indicates that the ratio of IC50 against KrasG12D vs. IC50 against KrasG12S is 1-fold or greater) | +++ (+++ indicates greater than 20% labelling) | –
3 | Cc1ncn(C(=O)N2CC3CCN(c4nc(OC[C@@]56CCCN5C[C@H](F)C6)nc5c(F)c(-c6ccc(F)c7sc(N)c(C#N)c67)c(Cl)cc45)C3C2)n1 (stereo partly drawn) [Compound A304, 2-amino-4-(6-chloro-8-fluoro-2-(((2R,7aS)-2-fluorotetrahydro-1H-pyrrolizin-7a(5H)-yl)methoxy)-4-(5-(3-methyl-1 H-1,2,4-triazole-1-carbonyl)hexahydropyrrolo[3,4-b]pyrrol-1(2H)-yl)quinazolin-7-yl)-7-fluorobenzo[b]thiophene-3-carbonitrile] | A (A: indicates that the ratio of IC50 against KrasG12D vs. IC50 against KrasG12S is 1-fold or greater) | +++ (+++ indicates greater than 20% labelling) | –
4 | N#Cc1c(N)sc2c(F)ccc(-c3c(Cl)cc4c(N5CCC6C5CN6C(=O)n5cncn5)nc(OC[C@@]56CCCN5C[C@H](F)C6)nc4c3F)c12 (stereo partly drawn) [Compound A183, 4-(4-(6-(1H-1,2,4-triazole-1-carbonyl)-2,6-diazabicyclo[3.2.0]heptan-2-yl)-6-chloro-8-fluoro-2-(((2R,7aS)-2-fluorotetrahydro-1H-pyrrolizin-7a(5H)-yl)methoxy)quinazolin-7-yl)-2-amino-7-fluorobenzo[b]thiophene-3-carbonitrile] | A (A: indicates that the ratio of IC50 against KrasG12D vs. IC50 against KrasG12S is 1-fold or greater) | ++ (++ indicates between about 1%- 20% labelling) | –
5 | N#CCc1ncn(C(=O)N2CC3(C2)CN(c2nc(OC[C@@]45CCCN4C[C@H](F)C5)nc4c(F)c(-c5ccc(F)c6sc(N)c(C#N)c56)c(Cl)cc24)CCO3)n1 [Compound A110, 2-amino-4-(6-chloro-4-(2-(3-(cyanomethyl)-1H-1,2,4-triazole-1-carbonyl)-5-oxa-2,8-diazaspiro[3.5]nonan-8-yl)-8-fluoro-2-(((2R,7aS)-2-fluorotetrahydro-1H-pyrrolizin-7a(5H)-yl)methoxy)quinazolin-7-yl)-7-fluorobenzo[b]thiophene-3-carbonitrile] | A (A: indicates that the ratio of IC50 against KrasG12D vs. IC50 against KrasG12S is 1-fold or greater) | +++ (+++ indicates greater than 20% labelling) | +++ (+++: indicates equal to or greater than 20% labelling)
6 | N#Cc1c(N)sc2c(F)ccc(-c3c(Cl)cc4c(N5CCOC6CN(C(=O)n7cncn7)CC65)nc(OC[C@@]56CCCN5C[C@H](F)C6)nc4c3F)c12 (stereo partly drawn) [Compound A218, 4-(4-(6-(1H-1,2,4-triazole-1-carbonyl)hexahydropyrrolo [3,4-b][1,4]oxazin-4(4aH)-yl)-6-chloro-8-fluoro-2-(((2R,7aS)-2-fluorotetrahydro-1H-pyrrolizin-7a(5H)-yl)methoxy)quinazolin-7-yl)-2-amino-7-fluorobenzo[b]thiophene-3-carbonitrile] | A (A: indicates that the ratio of IC50 against KrasG12D vs. IC50 against KrasG12S is 1-fold or greater) | +++ (+++ indicates greater than 20% labelling) | –
7 | Nc1nc2c(-c3c(Cl)cc4c(N5CCN(C(=O)n6cncn6)CC5)nc(OC[C@@]56CCCN5C[C@H](F)C6)nc4c3F)ccc(F)c2s1 [Compound A146, (4-(7-(2-amino-7-fluorobenzo[d]thiazol-4-yl)-6-chloro-8-fluoro-2-(((2R,7aS)-2-fluorotetrahydro-1H-pyrrolizin-7a(5H)-yl)methoxy)quinazolin-4-yl)piperazin-1-yl)(1H-1,2,4-triazol-1-yl)methanone] | A (A: indicates that the ratio of IC50 against KrasG12D vs. IC50 against KrasG12S is 1-fold or greater) | +++ (+++ indicates greater than 20% labelling) | –
8 | C#Cc1c(F)ccc2cc(O)cc(-c3ncc4c(N5CCOCC6(CN(C(=O)n7cnc(C)n7)C6)C5)nc(OC[C@@]56CCCN5C[C@H](F)C6)nc4c3F)c12 [Compound A298, (9-(7-(8-ethynyl-7-fluoro-3-hydroxynaphthalen-1-yl)-8-fluoro-2-(((2R,7aS)-2-fluorotetrahydro-1H-pyrrolizin-7a(5H)-yl)methoxy)pyrido[4,3-d]pyrimidin-4-yl)-6-oxa-2,9-diazaspiro[3.6]decan-2-yl)(3-methyl-1H-1,2,4-triazol-1-yl)methanone] | A (A: indicates that the ratio of IC50 against KrasG12D vs. IC50 against KrasG12S is 1-fold or greater) | +++ (+++ indicates greater than 20% labelling) | –
9 | Cc1nc(C)n(C(=O)N2CC3(C2)CN(c2nc(OC[C@@]45CCCN4C[C@H](F)C5)nc4c(F)c(-c5ccc(F)c6sc(N)c(C#N)c56)c(Cl)cc24)CCO3)n1 [Compound A283, 2-amino-4-(6-chloro-4-(2-(3,5-dimethyl-1H-1,2,4-triazole-1-carbonyl)-5-oxa-2,8-diazaspiro[3.5]nonan-8-yl)-8-fluoro-2-(((2R,7aS)-2-fluorotetrahydro-1H-pyrrolizin-7a(5H)-yl)methoxy)quinazolin-7-yl)-7-fluorobenzo[b]thiophene-3-carbonitrile] | A (A: indicates that the ratio of IC50 against KrasG12D vs. IC50 against KrasG12S is 1-fold or greater) | +++ (+++ indicates greater than 20% labelling) | –
10 | N#Cc1c(N)sc2c(F)ccc(-c3c(Cl)cc4c(N5CCC6(CN(C(=O)n7cncn7)C6)C5)nc(OC[C@@]56CCCN5C[C@H](F)C6)nc4c3F)c12 [Compound A277, 4-(4-(2-(1H-1,2,4-triazole-1-carbonyl)-2,6-diazaspiro[3.4]octan-6-yl)-6-chloro-8-fluoro-2-(((2R,7aS)-2-fluorotetrahydro-1H-pyrrolizin-7a(5H)-yl)methoxy)quinazolin-7-yl)-2-amino-7-fluorobenzo[b]thiophene-3-carbonitrile] | A (A: indicates that the ratio of IC50 against KrasG12D vs. IC50 against KrasG12S is 1-fold or greater) | +++ (+++ indicates greater than 20% labelling) | +++ (+++: indicates equal to or greater than 20% labelling)
11 | Nc1nc2c(-c3c(Cl)cc4c(N5CCCC6(CN(C(=O)n7cncn7)C6)C5)nc(OC[C@@]56CCCN5C[C@H](F)C6)nc4c3F)ccc(F)c2s1 [Compound A136, (6-(7-(2-amino-7-fluorobenzo[d]thiazol-4-yl)-6-chloro-8-fluoro-2-(((2R,7aS)-2-fluorotetrahydro-1H-pyrrolizin-7a(5H)-yl)methoxy)quinazolin-4-yl)-2,6-diazaspiro[3.5]nonan-2-yl)(1H-1,2,4-triazol-1-yl)methanone] | A (A: indicates that the ratio of IC50 against KrasG12D vs. IC50 against KrasG12S is 1-fold or greater) | +++ (+++ indicates greater than 20% labelling) | –
12 | Nc1nc2c(-c3c(Cl)cc4c(N5CCN(C(=O)n6cncn6)CC(F)(F)C5)nc(OC[C@@]56CCCN5C[C@H](F)C6)nc4c3F)ccc(F)c2s1 [Compound A141, (4-(7-(2-amino-7-fluorobenzo[d]thiazol-4-yl)-6-chloro-8-fluoro-2-(((2R,7aS)-2-fluorotetrahydro-1H-pyrrolizin-7a(5H)-yl)methoxy)quinazolin-4-yl)-6,6-difluoro-1,4-diazepan-1-yl)(1H-1,2,4-triazol-1-yl)methanone] | A (A: indicates that the ratio of IC50 against KrasG12D vs. IC50 against KrasG12S is 1-fold or greater) | +++ (+++ indicates greater than 20% labelling) | +++ (+++: indicates equal to or greater than 20% labelling)
13 | N#Cc1c(N)sc2c(F)ccc(-c3ncc4c(N5CCCC6(CN(C(=O)n7cncn7)C6)C5)nc(OC[C@@]56CCCN5C[C@H](F)C6)nc4c3F)c12 [Compound A134, 4-(4-(2-(1H-1,2,4-triazole-1-carbonyl)-2,6-diazaspiro[3.5]nonan-6-yl)-8-fluoro-2-(((2R,7aS)-2-fluorotetrahydro-1H-pyrrolizin-7a(5H)-yl)methoxy)pyrido[4,3-d]pyrimidin-7-yl)-2-amino-7-fluorobenzo[b]thiophene-3-carbonitrile] | A (A: indicates that the ratio of IC50 against KrasG12D vs. IC50 against KrasG12S is 1-fold or greater) | +++ (+++ indicates greater than 20% labelling) | –
